Source: patent publication US8158621B2, “Methods of treating or preventing autoimmune diseases with 2,4-pyrimidinediamine compounds” (Rigel Pharmaceuticals, Inc., priority 2002, dated 2012)
Where two headings read alike, the source gives them in different places.

Tested on: Human Jurkat T-cells (clone N)
Experiment: Jurkat T-cell activation (anti-TCR, CD69 upregulation)
Assay type: cell-based
Procedure: The screening process took place over three days.
On the first day of the screen, cultured cells were spun down on a centrifuge (1000 rpm, 5 minutes) and resuspended at 3.0×10^5 cells/ml in RPMI+5% FBS. On the second day of the screen, cells were spun down at 1000 rpm for 5 minutes and resuspended in RPMI+5% FBS at 1.3×10^5 cells/ml. 85 μl of this cell suspension were added to the wells of U-bottom 96 well plates (Corning) 85 μl of compound or diluted RPMI+5% FBS (as a control) only was added to each well and incubated at 37° C. for 1 hour. The cells were then stimulated with anti-TCR (C305) at: 500 ng/ml by adding a 8× solution in 25 μl to the plated cells. The cells were then incubated at 37° C. for 20 hrs.
On the third day of the screen, the plates were spun at 2500 RPM for 1 minute on a Beckman GS-6R centrifuge, and the medium was then removed. 50 μl staining solution (1:100 dilution of anti-CD69-APC antibody (Becton Dickenson) in PBS+2% FBS) was then added to each well, followed by incubation of the plates 4 degrees for 20 minutes in the dark. 150 μl of wash buffer (PBS+2% FBS) was then added to each well, and the plates were spun at 3000 RPM for 1 minute. The supernatant was again removed, and the pellet was resuspended by vortexing gently. 75 μl of PBS+2% FBS +Cytofix (1:4 dilution) was then added, the plates gently vortexed and wrap in aluminum foil. Cells from the plates were read using a flow cytometer coupled to an automated liquid handling system.
Varied concentrations of compound were compared to solvent only to determine the inhibition of T-cell activation IC50 of each compound.

`COC(=O)C(C)Oc1ccc(Nc2ncc(F)c(Nc3ccc(OC(C)C(=O)OC)cc3)n2)cc1` (mixture of isomers) [Compound R926254] was tested, and the IC50 was > 10 µM.

`Fc1cnc(NCCc2ccccc2)nc1Nc1ccc2c(c1)OCCO2` (racemic) [Compound R908697] was tested, and the IC50 (Homo sapiens, Jurkat) was > 10 µM.

`CC1Sc2ccc(Nc3ncc(F)c(Nc4cccc(O)c4)n3)cc2NC1=O` (racemic) [Compound R909263] showed an IC50 of 6.2 µM.

`COC(=O)C(C)Oc1ccc(Nc2ccnc(Nc3ccc(OC(C)C(=O)OC)cc3)n2)cc1` (racemic) [Compound R926257] was tested, and the IC50 was > 10 µM.

`CCOC(=O)C(C)Oc1ccc(Nc2ncc(C)c(Nc3ccc(OC(C)C(=O)OCC)cc3)n2)cc1` (racemic) [Compound R926259] showed an IC50 of 13 µM.

For `CC(Nc1nc(Nc2cccc(O)c2)ncc1F)c1ccc(F)cc1` (racemic) [Compound R935021], the IC50 (Homo sapiens, Jurkat) was > 10 µM.

`CC(Nc1nc(Nc2cccc(O)c2)ncc1Br)c1ccc(F)cc1` (racemic) [Compound R935023] was tested, and the IC50 (Homo sapiens, Jurkat) was > 10 µM.

`Nc1cccc(Nc2nc(Nc3cccc(NC(=O)CCC(C(=O)O)N4C(=O)c5ccccc5C4=O)c3)ncc2F)c1` (racemic) [Compound R950251] was tested, and the IC50 was > 10 µM.

For `Nc1cccc(Nc2nc(Nc3cccc(NC(=O)CCC(N)C(=O)O)c3)ncc2F)c1` (racemic) [Compound R950255], the IC50 was > 10 µM.

`CCOc1ccc(Nc2ncc(F)c(Nc3ccc(OCC)cc3)n2)cc1` [Compound R070790, N2,N4-bis(4-ethoxyphenyl)-5-fluoro-2,4-pyrimidinediamine] was tested, and the IC50 (Homo sapiens, Jurkat) was > 10 µM.

With `Cc1ccc(CNc2ncc(F)c(Nc3ccc4c(c3)OCCO4)n2)cc1Cl` [Compound R908696] the IC50 (Homo sapiens, Jurkat) was > 10 µM.

In the case of `O=C1COc2cc(Nc3nc(Nc4cccc(O)c4)ncc3F)ccc2N1` [Compound R908698], the IC50 is reported as 3.75 µM.

In the case of `O=C1COc2cc(Nc3ncc(F)c(Nc4cccc(O)c4)n3)ccc2N1` [Compound R908699], the IC50 (Homo sapiens, Jurkat) is reported as 1.03 µM.

`CNC(=O)COc1cccc(Nc2ncc(F)c(Nc3ccc4c(c3)OCC(=O)N4)n2)c1` [Compound R908700] was tested, and the IC50 was 13.7 µM.

`CNC(=O)COc1cccc(Nc2ncc(F)c(Nc3ccc4c(c3)OCCN4C)n2)c1` [Compound R908705] gave an IC50 of 5.88 µM.

With `CN1C(=O)COc2ccc(Nc3nc(Nc4cccc(O)c4)ncc3F)cc21` [Compound R908709] the IC50 (Homo sapiens, Jurkat) was 3.39 µM.

With `Fc1cnc(Nc2ccc3c(c2)CCO3)nc1Nc1ccc2c(c1)CCO2` [Compound R909237] the IC50 was > 10 µM.

`O=C(COc1ccc(Nc2ncc(F)c(Nc3ccc4c(c3)OCCO4)n2)cc1)NCCO` [Compound R909239] gave an IC50 of 3.06 µM.

Compound `CNC(=O)COc1ccc(Nc2ncc(F)c(Nc3ccc4c(c3)OCCO4)n2)cc1` [Compound R909240] has an IC50 of 2.85 µM.

`CCOC(=O)COc1cccc(Nc2ncc(F)c(Nc3ccc4c(c3)NCCO4)n2)c1` [Compound R909242] gave an IC50 of 3.8 µM.

With `CNC(=O)COc1cccc(Nc2nc(Nc3ccc4c(c3)NCCO4)ncc2F)c1` [Compound R909247] the IC50 was 3 µM.

For `Oc1cccc(Nc2nc(Nc3ccc4c(c3)CCO4)ncc2F)c1` [Compound R909250], the IC50 (Homo sapiens, Jurkat) was > 10 µM.

Compound `CC(O)CNC(=O)COc1cccc(Nc2ncc(F)c(Nc3ccc4c(c3)NCCO4)n2)c1` (centres unmarked) [Compound R909251] has an IC50 of 0.664 µM.

For `O=C(COc1cccc(Nc2ncc(F)c(Nc3ccc4c(c3)NCCO4)n2)c1)NCCCO` [Compound R909252], the IC50 was 0.655 µM.

`CNC(=O)COc1cccc(Nc2nc(Nc3ccc(OCCN(C)C)cc3)ncc2F)c1` [Compound R909253] was tested, and the IC50 was 3.08 µM.

In the case of `CNC(=O)COc1cccc(Nc2ncc(F)c(Nc3ccc4c(c3)N(C)CCO4)n2)c1` [Compound R909259], the IC50 is reported as > 10 µM.

`CNC(=O)COc1cccc(Nc2ncc(F)c(Nc3ccc4c(c3)N(C)C(=O)CO4)n2)c1` [Compound R909260] was tested, and the IC50 was 3.33 µM.

For `CNC(=O)COc1cccc(Nc2ncc(F)c(Nc3ccc4c(c3)OCC(=O)N4C)n2)c1` [Compound R909261], the IC50 was 2.94 µM.

In the case of `CN1C(=O)COc2cc(Nc3nc(Nc4cccc(O)c4)ncc3F)ccc21` [Compound R909264], the IC50 (Homo sapiens, Jurkat) is reported as 3.24 µM.

`CCOC(=O)c1ncn2c1COc1c(Nc3nc(Nc4cccc(OCC(=O)NC)c4)ncc3F)cccc1-2` [Compound R909265] gave an IC50 of 12 µM.

Work on `CCOC(=O)COc1cccc(Nc2ncc(F)c(Nc3ccc4c(c3)OCCN4)n2)c1` [Compound R909266] yielded an IC50 of 13 µM.

Compound `CN(C)C(=O)COc1cccc(Nc2ncc(F)c(Nc3ccc4c(c3)NCCO4)n2)c1` [Compound R909290] has an IC50 of 1.56 µM.

For `CNC(=O)COc1cccc(Nc2ncc(F)c(Nc3ccc4c(c3)NCCO4)n2)c1` [Compound R920395], the IC50 was 0.726 µM.

In the case of `CCCCCCOc1ccc(Nc2ncc(F)c(Nc3ccc4c(c3)OCCO4)n2)cc1` [Compound R920664], the IC50 (Homo sapiens, Jurkat) is reported as > 10 µM.

With `Fc1cnc(Nc2cccnc2)nc1Nc1ccc2c(c1)OCCO2` [Compound R920668] the IC50 (Homo sapiens, Jurkat) was > 10 µM.

`FC(F)(F)c1cnc(Nc2ccc3c(c2)OCCO3)nc1Nc1ccc2c(c1)OCCO2` [Compound R920669] showed an IC50 of 19.8 µM.

Compound `CCOc1ccc(Nc2nc(Nc3ccc4c(c3)OCCO4)ncc2F)cc1` [Compound R920670] has an IC50 of 14.3 µM.

With `Oc1cccc(Nc2nc(Nc3ccc(OCc4nnn[nH]4)cc3)ncc2F)c1` [Compound R920818] the IC50 was > 10 µM.

`Oc1cccc(Nc2ccnc(Nc3ccc(OCc4nn[nH]n4)cc3)n2)c1` [Compound R920819] was tested, and the IC50 was > 10 µM.

With `Cc1cnc(Nc2ccc(OCc3nnn[nH]3)cc2)nc1Nc1cccc(O)c1` [Compound R920820] the IC50 was > 10 µM.

Work on `Oc1cccc(Nc2nc(Nc3ccc(OCc4nnn[nH]4)cc3)ncc2C(F)(F)F)c1` [Compound R920846] yielded an IC50 of 10.4 µM.

In the case of `Cn1nnnc1COc1ccc(Nc2ncc(F)c(Nc3cccc(O)c3)n2)cc1` [Compound R920861], the IC50 is reported as 3.28 µM.

For `Cc1cnc(Nc2ccc(OCc3nnn(C)n3)cc2)nc1Nc1cccc(O)c1` [Compound R920893], the IC50 was 1.4 µM.

`Cc1cnc(Nc2ccc(OCc3nnnn3C)cc2)nc1Nc1cccc(O)c1` [Compound R920894] was tested, and the IC50 was 2.02 µM.

Compound `Cn1nnc(COc2ccc(Nc3nccc(Nc4cccc(O)c4)n3)cc2)n1` [Compound R920910] has an IC50 of 2.38 µM.

`Cn1nnnc1COc1ccc(Nc2nccc(Nc3cccc(O)c3)n2)cc1` [Compound R920917] showed an IC50 of 2.65 µM.

With `CCOC(=O)c1cccc(Nc2ncc(F)c(Nc3ccc4c(c3)OCCO4)n2)c1` [Compound R925745] the IC50 (Homo sapiens, Jurkat) was > 10 µM.

In the case of `OCCNc1ncc(F)c(Nc2ccc3c(c2)OCCO3)n1` [Compound R925746], the IC50 (Homo sapiens, Jurkat) is reported as > 10 µM.

With `CCOC(=O)COc1ccc(Nc2ncc(F)c(Nc3ccc4c(c3)OCCO4)n2)cc1` [Compound R925747] the IC50 was > 10 µM.

With `CN(C)C(=O)COc1cccc(Nc2ncc(F)c(Nc3ccc4c(c3)OCCO4)n2)c1` [Compound R925755] the IC50 was 1.91 µM.

For `OCc1cccc(Nc2ncc(F)c(Nc3cccc(CO)c3)n2)c1` [Compound R925757], the IC50 (Homo sapiens, Jurkat) was > 10 µM.

With `OCc1cccc(Nc2nc(Nc3ccc4c(c3)OCCO4)ncc2F)c1` [Compound R925758] the IC50 (Homo sapiens, Jurkat) was 18.2 µM.

`Nc1nc(N(c2ccc(CO)cc2)c2ccc3c(c2)OCCO3)ncc1F` [Compound R925760] showed an IC50 (Homo sapiens, Jurkat) of 20.2 µM.

With `Nc1nc(N(CC(O)c2ccccc2)c2ccc3c(c2)OCCO3)ncc1F` (centres unmarked) [Compound R925765] the IC50 (Homo sapiens, Jurkat) was > 10 µM.

For `C[C@H](Nc1nc(Nc2ccc3c(c2)OCCO3)ncc1F)[C@H](O)c1ccccc1` [Compound R925766], the IC50 was > 10 µM.

For `C[C@H](Nc1ncc(F)c(N[C@@H](C)[C@H](O)c2ccccc2)n1)[C@H](O)c1ccccc1` [Compound R925767], the IC50 was > 10 µM.

In the case of `OC(CNc1ncc(F)c(NCC(O)c2ccccc2)n1)c1ccccc1` (centres unmarked) [Compound R925768], the IC50 (Homo sapiens, Jurkat) is reported as > 10 µM.

In the case of `Fc1cnc(NCc2ccco2)nc1NCc1ccco1` [Compound R925769], the IC50 (Homo sapiens, Jurkat) is reported as > 10 µM.

With `Fc1cnc(NCc2ccc3c(c2)OCO3)nc1NCc1ccc2c(c1)OCO2` [Compound R925770] the IC50 was > 10 µM.

`Brc1cnc(Nc2ccc3c(c2)OCCO3)nc1Nc1ccc2c(c1)OCCO2` [Compound R925771] was tested, and the IC50 (Homo sapiens, Jurkat) was 7.19 µM.

In the case of `Fc1cnc(NCc2ccccc2)nc1NCc1ccccc1` [Compound R925772], the IC50 (Homo sapiens, Jurkat) is reported as > 10 µM.

Work on `N#Cc1cnc(Nc2ccc3c(c2)OCCO3)nc1Nc1ccc2c(c1)OCCO2` [Compound R925773] yielded an IC50 (Homo sapiens, Jurkat) of 14.4 µM.

`N#Cc1cnc(Nc2cccc(O)c2)nc1Nc1cccc(O)c1` [Compound R925774] was tested, and the IC50 (Homo sapiens, Jurkat) was 7.5 µM.

`CCOC(=O)COc1ccc(Nc2ncc(C#N)c(Nc3ccc(OCC(=O)OCC)cc3)n2)cc1` [Compound R925775] was tested, and the IC50 was > 10 µM.

With `Fc1cnc(Nc2ccc3c(c2)OCO3)nc1Nc1ccc2c(c1)OCO2` [Compound R925776] the IC50 (Homo sapiens, Jurkat) was 17.1 µM.

`CCOC(=O)COc1ccc(Nc2ncc(Br)c(Nc3ccc(OCC(=O)OCC)cc3)n2)cc1` [Compound R925779] was tested, and the IC50 was > 10 µM.

In the case of `Oc1cccc(Nc2ncc(-c3ccccc3)c(Nc3cccc(O)c3)n2)c1` [Compound R925783], the IC50 (Homo sapiens, Jurkat) is reported as > 10 µM.

With `c1ccc(-c2cnc(Nc3ccc4c(c3)OCCO4)nc2Nc2ccc3c(c2)OCCO3)cc1` [Compound R925784] the IC50 (Homo sapiens, Jurkat) was > 10 µM.

In the case of `c1coc(-c2cnc(Nc3ccc4c(c3)OCCO4)nc2Nc2ccc3c(c2)OCCO3)c1` [Compound R925785], the IC50 (Homo sapiens, Jurkat) is reported as 3.12 µM.

With `Clc1ccc(-c2cnc(Nc3ccc4c(c3)OCCO4)nc2Nc2ccc3c(c2)OCCO3)cc1` [Compound R925786] the IC50 (Homo sapiens, Jurkat) was > 10 µM.

`Clc1cccc(-c2cnc(Nc3ccc4c(c3)OCCO4)nc2Nc2ccc3c(c2)OCCO3)c1` [Compound R925787] was tested, and the IC50 (Homo sapiens, Jurkat) was > 10 µM.
